Read-outs that look alike come from different tables or passages of the source.
Key:
[1] = test system: GM3 expression on the cell surface, B16 mouse melanoma cells; experiment: cell based phenotypic assay, cell surface GM3 by antibody mediated immunofluorescence, B16 (GM3 B16 IC50); details: 50% inhibition of GM3 expression on the cell surface
How it was run: (§1)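 Two melanoma lines, mouse B16 and human C32, were treated and surface GM3 quantified by antibody immunofluorescence for IC50. A parallel viability readout gives the concentration killing 50% of cells, with values over 10 indicating no cell death.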

[2] = test system: GM3 expression on the cell surface, C32 human melanoma cells; experiment: cell based phenotypic assay, cell surface GM3 by antibody mediated immunofluorescence, C32 (GM3 C32 IC50); details: 50% inhibition of GM3 expression on the cell surface
How it was run: as §1

B16 mouse melanoma cells = experiment: cell viability in the B16 cell-based assay (Viability, B16 IC50)
How it was run: as §1

C32 human melanoma cells = experiment: cell viability in the C32 cell-based assay (Viability, C32 IC50); details: concentration causing 50% cell death, values greater than 10 represent a lack of cell death
How it was run: as §1

[3] = biological target: T1, glucosylceramide synthase (Homo sapiens, UniProt Q16739); experiment: microsomal assay measuring conversion of ceramide to glucosylceramide by HPLC (GCS IC50); assay type: biochemical; details: concentration causing 50% inhibition of glucosylceramide synthase activity
T1 construct: Microsomes were isolated from A375 human melanoma cells; endogenous in cells; host or cells: A375 human melanoma cells (microsomal fraction, 100,000 g pellet)
T1 sequence (Q16739 1-394): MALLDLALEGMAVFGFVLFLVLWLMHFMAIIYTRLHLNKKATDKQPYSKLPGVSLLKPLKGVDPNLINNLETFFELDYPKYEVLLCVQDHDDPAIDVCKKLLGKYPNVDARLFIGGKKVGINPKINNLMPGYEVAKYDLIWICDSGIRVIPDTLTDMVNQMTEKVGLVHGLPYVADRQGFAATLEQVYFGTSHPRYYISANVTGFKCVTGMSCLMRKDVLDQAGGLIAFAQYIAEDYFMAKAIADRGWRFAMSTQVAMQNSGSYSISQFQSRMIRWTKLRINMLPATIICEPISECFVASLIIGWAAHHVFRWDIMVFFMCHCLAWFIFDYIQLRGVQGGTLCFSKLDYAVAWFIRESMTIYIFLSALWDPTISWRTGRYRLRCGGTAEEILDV
How it was run: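 Microsomal preparation assayed for glucosylceramide synthase by direct HPLC measurement of ceramide conversion to glucosylceramide. GCS IC50 is the compound concentration giving 50% inhibition of enzyme activity.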

[4] = Mus musculus, read-out: GM3 B16 IC50, B16 mouse melanoma cells
[5] = Homo sapiens, read-out: GM3 C32 IC50, C32 human melanoma cells
[6] = Mus musculus, B16, read-out: Viability, B16 IC50
[7] = Homo sapiens, C32, read-out: Viability, C32 IC50, C32 cells
[8] = Mus musculus, B16 mouse melanoma cells, read-out: GM3 B16 IC50
[9] = Homo sapiens, C32 human melanoma cells, read-out: GM3 C32 IC50
[10] = Mus musculus, B16, B16 cells, concentration causing 50% cell death, values greater than 10 represent a lack of cell death, read-out: Viability, B16 IC50
[11] = Homo sapiens, C32, C32 cells, read-out: Viability, C32 IC50

| IC50 [1, 8] | IC50 [2, 9] | Compound | IC50 [3] | IC50 (B16 mouse melanoma cells; [10]) | IC50 (C32 human melanoma cells; [11]) | also measured |
| --- | --- | --- | --- | --- | --- | --- |
|  |  | COCCCS(=O)(=O)c1ccc(-c2ccc(C(C)(C)NC(=O)OC3CN4CCC3CC4)cc2)cc1 (centres unmarked) [Example 242, Quinuclidin-3-yl (2-(4′-((3-methoxypropyl)sulfonyl)-[1,1′-biphenyl]-4-yl)propan-2-yl)carbamate] | 32.5 nM |  |  | IC50 [1, 4]: 82.5 nM; IC50 [2, 5]: 10.2 nM; IC50 (B16 mouse melanoma cells; [6]): ≥ 10000 nM; IC50 (C32 human melanoma cells; [7]): 3160 nM |
| 440 nM | 7.79 nM | CC(C)(NC(=O)NC1(C)CCN2CCC1CC2)c1ccc(Oc2ccc(C(=O)N3CCOCC3)cc2)cc1 (centres unmarked) [Example 281, 1-(4-Methyl-1-azabicyclo[3.2.2]nonan-4-yl)-3-(2-(4-(4-(morpholine-4-carbonyl)phenoxy)phenyl)propan-2-yl)urea] | 31.6 nM | ≥ 10000 nM | 1000 nM |  |
|  |  | COCCOc1ccc(-c2cccc(C(C)(C)NC(=O)OC3CN4CCC3CC4)c2)cc1 (centres unmarked) [Example 170, Quinuclidin-3-yl (2-(4′-(2-methoxyethoxy)-[1,1′-biphenyl]-3-yl)propan-2-yl)carbamate] | 26.7 nM |  |  | IC50 [1, 4]: 29.5 nM; IC50 [2, 5]: 4.94 nM; IC50 (B16 mouse melanoma cells; [6]): ≥ 10000 nM; IC50 (C32 human melanoma cells; [7]): ≥ 10000 nM |
| 4440 nM | 729 nM | CNC(=O)c1ccc(-c2ccc(C(C)(C)NC(=O)N3CCN4CCC3CC4)cc2)cc1 [Example 256, N-(2-(4′-(Methylcarbamoyl)biphenyl-4-yl)propan-2-yl)-1,4-diazabicyclo[3.2.2]nonane-4-carboxamide] | 12300 nM | ≥ 10000 nM | ≥ 10000 nM |  |
|  |  | CC1(NC(=O)C2CCN(c3cncc(-c4ccc(F)cc4)n3)CC2)CCN2CCC1CC2 (single isomer, unassigned) [Example 48, 1-(6-(4-Fluorophenyl)pyrazin-2-yl)-N-(4-methyl-1-azabicyclo[3.2.2]nonan-4-yl)piperidine-4-carboxamide] | 1.61 nM |  |  | IC50 ([1]; B16 mouse melanoma cells, read-out: GM3 B16 IC50): 47.7 nM; IC50 ([2]; C32 human melanoma cells, read-out: GM3 C32 IC50): 0.096 nM; IC50 (B16 mouse melanoma cells; B16 cells, concentration causing 50% cell death, values greater than 10 represent a lack of cell death, read-out: Viability, B16 IC50): 7760 nM; IC50 (C32 human melanoma cells; C32 cells, read-out: Viability, C32 IC50): 5.17 nM |
| 150 nM | 5.82 nM | COCCOc1ccc(-c2ccc(C(C)(C)NC(=O)OC3CCN4CCC3CC4)nc2)cc1 (centres unmarked) [Example 347, 1-Azabicyclo[3.2.2]nonan-4-yl 2-(5-(4-(2-methoxyethoxy)phenyl)pyridin-2-yl)propan-2-ylcarbamate] | 36.8 nM | ≥ 10000 nM | 1410 nM |  |
| 43.9 nM | 0.261 nM | COCCOc1ccc(-c2ccnc(N3CCC(F)(C(=O)NC4(C)CCN5CCC4CC5)CC3)n2)cc1 (centres unmarked) [Example 93, 4-Fluoro-1-(4-(4-(2-methoxyethoxy)phenyl)pyrimidin-2-yl)-N-(4-methyl-1-azabicyclo[3.2.2]nonan-4-yl)piperidine-4-carboxamide] | 3.96 nM | 3960 nM | 316 nM |  |
| 650 nM | 63.8 nM | CNC(=O)c1ccc(-c2ccc(C(C)(C)NC(=O)OC3CCN4CCC3CC4)cc2)cc1 (centres unmarked) [Example 254, 1-Azabicyclo[3.2.2]nonan-4-yl (2-(4′-(methylcarbamoyl)-[1,1′-biphenyl]-4-yl)propan-2-yl)carbamate] | 600 nM | ≥ 10000 nM | ≥ 10000 nM |  |
| 1790 nM | 417 nM | CC(C)(NC(=O)N1CCN2CCC1CC2)c1ccc(-c2ccc(CN3CCOCC3)cc2)cc1 [Example 230, N-(2-(4′-(Morpholinomethyl)-[1,1′-biphenyl]-4-yl)propan-2-yl)-1,4-diazabicyclo[3.2.2]nonane-4-carboxamide] | 2280 nM | ≥ 10000 nM | ≥ 10000 nM |  |
|  |  | CN(C)C(=O)c1ccc(Oc2ccc(C(C)(C)NC(=O)OC3CN4CCC3CC4)cc2)cc1 (centres unmarked) [Example 283, Quinuclidin-3-yl 2-(4-(4-(dimethylcarbamoyl)phenoxy)phenyl)propan-2-ylcarbamate] | 606 nM |  |  | IC50 ([1]; read-out: GM3 B16 IC50, B16 mouse melanoma cells): 1030 nM; IC50 ([2]; read-out: GM3 C32 IC50, C32 human melanoma cells): 114 nM; IC50 (B16 mouse melanoma cells; [6]): ≥ 10000 nM; IC50 (C32 human melanoma cells; read-out: Viability, C32 IC50, C32 cells): ≥ 10000 nM |
|  |  | COCCCOc1ccc(-c2ccc(C(C)(C)NC(=O)OC3CN4CCC3CC4)cc2)cc1 (centres unmarked) [Example 172, Quinuclidin-3-yl (2-(4′-(3-methoxypropoxy)-[1,1′-biphenyl]-4-yl)propan-2-yl)carbamate] | 2.41 nM |  |  | IC50 [1, 4]: 66.6 nM; IC50 [2, 5]: 1.56 nM; IC50 (B16 mouse melanoma cells; [6]): 8290 nM; IC50 (C32 human melanoma cells; [7]): ≥ 10000 nM |
| 6840 nM | 1000 nM | O=C(NC1CCN2CCC1CC2)N1CCN(c2ccc(-c3ccccc3)cc2)CC1 (centres unmarked) [Example 3, 4-([1,1′-Biphenyl]-4-yl)-N-(1-azabicyclo[3.2.2]nonan-4-yl)piperazine-1-carboxamide] | 10900 nM | 4180 nM | 2510 nM |  |
| 529 nM | 6.33 nM | COCC1CN(C(=O)NC2(C)CCN3CCC2CC3)CCN1c1nccc(-c2ccccc2)n1 (centres unmarked) [Example 144, 3-(Methoxymethyl)-N-(4-methyl-1-azabicyclo[3.2.2]nonan-4-yl)-4-(4-phenylpyrimidin-2-yl)piperazine-1-carboxamide] | 67.3 nM | ≥ 10000 nM | 1000 nM |  |

| Compound | IC50 [1, 8] | IC50 [2, 9] | IC50 [3] | IC50 (B16 mouse melanoma cells; [10]) | IC50 (C32 human melanoma cells; [11]) | also measured |
| --- | --- | --- | --- | --- | --- | --- |
| CCC1(NC(=O)NC(C)(C)c2ccc(-c3ccc(C(=O)N4CCC(F)(F)CC4)cc3)cc2)CN2CCC1CC2 (centres unmarked) [Example 272, 1-(2-(4′-(4,4-Difluoropiperidine-1-carbonyl)biphenyl-4-yl)propan-2-yl)-3-(3-ethylquinuclidin-3-yl)urea] | 24.9 nM | 2.15 nM | 16.4 nM | ≥ 10000 nM | 1000 nM |  |
| COCCOc1ccc(-c2ccnc(N3CCC(F)(C(=O)N[C@]4(C)CN5CCC4CC5)CC3)n2)cc1 [Example 86, (S)-4-Fluoro-1-(4-(4-(2-methoxyethoxy)phenyl)pyrimidin-2-yl)-N-(3-methylquinuclidin-3-yl)piperidine-4-carboxamide] | 48 nM | 0.241 nM | 3.46 nM | ≥ 10000 nM | 1000 nM |  |
| CCC1(NC(=O)NC(C)(C)c2ccc(-c3ccc(CCO)cc3)cc2)CN2CCC1CC2 (centres unmarked) [Example 225, 1-(3-Ethylquinuclidin-3-yl)-3-(2-(4′-(2-hydroxyethyl)-[1,1′-biphenyl]-4-yl)propan-2-yl)urea] | 229 nM | 1.92 nM | 29.4 nM | ≥ 10000 nM | ≥ 10000 nM |  |
| CC1(NC(=O)C2(F)CCN(c3nccc(Oc4ccc(C#N)cc4)n3)CC2)CN2CCC1CC2 (centres unmarked) [Example 119, 1-(4-(4-Cyanophenoxy)pyrimidin-2-yl)-4-fluoro-N-(3-methylquinuclidin-3-yl)piperidine-4-carboxamide] | 54.4 nM | 0.476 nM | 6.71 nM | ≥ 10000 nM | 316 nM |  |
| CCC1(NC(=O)NC(C)(C)c2ccc(-c3ccc(COCCOC)cc3)cc2)CN2CCC1CC2 (centres unmarked) [Example 199, 1-(3-Ethylquinuclidin-3-yl)-3-(2-(4′-((2-methoxyethoxy)methyl)-[1,1′-biphenyl]-4-yl)propan-2-yl)urea] | 31.7 nM | 1.8 nM | 14.7 nM | 1000 nM | 1000 nM |  |
| CC1(NC(=O)C2(F)CCN(c3nccc(COc4ccc(F)cc4)n3)CC2)CN2CCC1CC2 (centres unmarked) [Example 135, 4-Fluoro-1-(4-((4-fluorophenoxy)methyl)pyrimidin-2-yl)-N-(3-methylquinuclidin-3-yl)piperidine-4-carboxamide] | 31.7 nM | 0.132 nM | 1.38 nM | 8250 nM | 46.4 nM |  |

Source: patent US12060349B2, “Glucosylceramide synthase inhibitors” (Genzyme Corporation, priority 2012, dated 2024)
